From US9227971B2, “Pyrazolo[1,5-a]pyrimidine compounds as mTOR inhibitors” (Merck Sharp & Dohme Corp., priority 2010, dated 2016)
Like-named read-outs stand apart in the source and are kept apart here.

Columns and labels:
[1] = test system: phosphorylated AKT Ser473 (pAKT S473), mTORC2 activity, PC3 cells; assay: mTOR target engagement assay, immunofluorescent cell-based, pAKT S473 readout (mTORC2 activity); details: PC3 cells
Procedure, shortened: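 After blocking, cells were stained overnight at 4 °C with anti-pAKT S473 antibody, then a fluorescent secondary; inhibition was read as reduced fluorescence intensity.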

[2] = test system: phosphorylated 4E-BP1 Thr37/46 (p4E-BP1 Thr37/46), mTORC1 activity, PC3 cells; assay: mTOR target engagement assay, immunofluorescent cell-based, p4E-BP1 Thr37/46 readout (mTORC1 activity); details: PC3 cells, read-out: p4E-BP1 Thr37/46 IC50
Procedure, shortened: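 PTEN-mutant PC3 prostate cells were treated with serially diluted compound in 5% FBS F12 medium (0.25% DMSO) for ninety minutes at 37° C, glyoxal-fixed, then immunostained overnight at 4° C for p4E-BP1 Thr37/46 with an Alexa Fluor 488 secondary. IC50 came from four-parameter fits of fluorescence, DMSO-only wells defining 100%.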

CS(=O)(=O)c1c([C@@H]2C[C@H]3CC[C@@H](C2)N3C(=O)c2nnc[nH]2)nc2c(-c3ccc(-c4ccc(OC(F)F)cc4)nc3)cnn2c1N [Compound 3.55, ((1R,3s,5S)-3-(7-amino-3-(6-(4-(difluoromethoxy)phenyl)pyridin-3-yl)-6-(methylsulfonyl)pyrazolo[1,5-a]pyrimidin-5-yl)-8-azabicyclo[3.2.1]octan-8-yl)(4H-1,2,4-triazol-3-yl)methanone]
IC50 ([1]; Homo sapiens, PC-3, Table 3-1): 1 to 100 nM | IC50 ([2]; Homo sapiens, PC-3, Table 3-1): 1 to 100 nM

COCCOc1ccc(-c2ccc(-c3cnn4c(N)c(S(C)(=O)=O)c([C@@H]5C[C@H]6CC[C@@H](C5)N6C(=O)c5nnc[nH]5)nc34)cn2)cc1 [Compound 3.56, ((1R,3s,5S)-3-(7-amino-3-(6-(4-(2-methoxyethoxy)phenyl)pyridin-3-yl)-6-(methylsulfonyl)pyrazolo[1,5-a]pyrimidin-5-yl)-8-azabicyclo[3.2.1]octan-8-yl)(4H-1,2,4-triazol-3-yl)methanone]
IC50 ([1]; Homo sapiens, PC-3, Table 3-1): 100 to 1000 nM | IC50 ([2]; Homo sapiens, PC-3, Table 3-1): 100 to 1000 nM

Cn1cc2cc(-c3ccc(-c4cnn5c(N)c(S(C)(=O)=O)c([C@@H]6C[C@H]7CC[C@@H](C6)N7C(=O)c6nnc[nH]6)nc45)cn3)ccc2n1 [Compound 3.57, ((1R,3s,5S)-3-(7-amino-3-(6-(2-methyl-2H-indazol-5-yl)pyridin-3-yl)-6-(methylsulfonyl)pyrazolo[1,5-a]pyrimidin-5-yl)-8-azabicyclo[3.2.1]octan-8-yl)(4H-1,2,4-triazol-3-yl)methanone]
IC50 ([1]; Table 3-1): 1 to 100 nM | IC50 ([2]; Table 3-1): 1 to 100 nM

COc1ncc(-c2ccc(-c3cnn4c(N)c(S(C)(=O)=O)c([C@@H]5C[C@H]6CC[C@@H](C5)N6C(=O)c5nnc[nH]5)nc34)cn2)cn1 [Compound 3.58, ((1R,3s,5S)-3-(7-amino-3-(6-(2-methoxypyrimidin-5-yl)pyridin-3-yl)-6-(methylsulfonyl)pyrazolo[1,5-a]pyrimidin-5-yl)-8-azabicyclo[3.2.1]octan-8-yl)(4H-1,2,4-triazol-3-yl)methanone]
IC50 ([1]; Table 3-1): 1000 to 10000 nM | IC50 ([2]; Table 3-1): 1000 to 10000 nM

COc1cc(F)c(-c2ccc(-c3cnn4c(N)c(S(C)(=O)=O)c([C@@H]5C[C@H]6CC[C@@H](C5)N6C(=O)c5nnc[nH]5)nc34)cn2)cc1F [Compound 3.59, ((1R,3s,5S)-3-(7-amino-3-(6-(2,5-difluoro-4-methoxyphenyl)pyridin-3-yl)-6-(methylsulfonyl)pyrazolo[1,5-a]pyrimidin-5-yl)-8-azabicyclo[3.2.1]octan-8-yl)(4H-1,2,4-triazol-3-yl)methanone]
IC50 ([1]; Homo sapiens, PC-3, Table 3-1): 1 to 100 nM | IC50 ([2]; Homo sapiens, PC-3, Table 3-1): 1 to 100 nM

CCOc1ccc(-c2ccc(-c3cnn4c(N)c(S(C)(=O)=O)c([C@@H]5C[C@H]6CC[C@@H](C5)N6C(=O)c5nnc[nH]5)nc34)cn2)cc1 [Compound 3.60, ((1R,3s,5S)-3-(7-amino-3-(6-(4-ethoxyphenyl)pyridin-3-yl)-6-(methylsulfonyl)pyrazolo[1,5-a]pyrimidin-5-yl)-8-azabicyclo[3.2.1]octan-8-yl)(4H-1,2,4-triazol-3-yl)methanone]
IC50 ([1]; Homo sapiens, PC-3, Table 3-1): 1 to 100 nM | IC50 ([2]; Homo sapiens, PC-3, Table 3-1): 1 to 100 nM

CS(=O)(=O)c1c([C@@H]2C[C@H]3CC[C@@H](C2)N3C(=O)c2nnc[nH]2)nc2c(-c3ccc(-c4ccc(OC5CC5)cc4)nc3)cnn2c1N [Compound 3.61, ((1R,3s,5S)-3-(7-amino-3-(6-(4-cyclopropoxyphenyl)pyridin-3-yl)-6-(methylsulfonyl)pyrazolo[1,5-a]pyrimidin-5-yl)-8-azabicyclo[3.2.1]octan-8-yl)(4H-1,2,4-triazol-3-yl)methanone]
IC50 ([1]; Homo sapiens, PC-3, Table 3-1): 100 to 1000 nM | IC50 ([2]; Homo sapiens, PC-3, Table 3-1): 100 to 1000 nM

[2H]C([2H])([2H])Oc1ccc(-c2ccc(-c3ccn4c(N)c(S(C)(=O)=O)c([C@@H]5C[C@H]6CC[C@@H](C5)N6C(=O)c5nnc[nH]5)nc34)cn2)cc1 [Compound 3.62, ((1R,3s,5S)-3-(7-amino-3-(6-(4-methoxy-(D3)-phenyl)pyridin-3-yl)-6-(methylsulfonyl)pyrazolo[1,5-a]pyrimidin-5-yl)-8-azabicyclo[3.2.1]octan-8-yl)(4H-1,2,4-triazol-3-yl)methanone]
IC50 ([1]; Homo sapiens, PC-3, Table 3-1): 1 to 100 nM | IC50 ([2]; Homo sapiens, PC-3, Table 3-1): 1 to 100 nM

CS(=O)(=O)c1c([C@@H]2C[C@H]3CC[C@@H](C2)N3C(=O)c2nnc[nH]2)nc2c(-c3ccc(-c4ccc(OCF)cc4)nc3)cnn2c1N [Compound 3.63, ((1R,3s,5S)-3-(7-amino-3-(6-(4-(fluoromethoxy)phenyl)pyridin-3-yl)-6-(methylsulfonyl)pyrazolo[1,5-a]pyrimidin-5-yl)-8-azabicyclo[3.2.1]octan-8-yl)(4H-1,2,4-triazol-3-yl)methanone]
IC50 ([1]; Table 3-1): 1 to 100 nM | IC50 ([2]; Table 3-1): 1 to 100 nM

CS(=O)(=O)c1c([C@@H]2C[C@H]3CC[C@@H](C2)N3C(=O)c2nnc[nH]2)nc2c(-c3ccc(-c4ccncc4)nc3)cnn2c1N [Compound 3.64, ((1R,3s,5S)-3-(3-(2,4′-bipyridin-5-yl)-7-amino-6-(methylsulfonyl)pyrazolo[1,5-a]pyrimidin-5-yl)-8-azabicyclo[3.2.1]octan-8-yl)(4H-1,2,4-triazol-3-yl)methanone]
IC50 ([1]; Table 3-1): 1000 to 10000 nM | IC50 ([2]; Table 3-1): 1000 to 10000 nM

CS(=O)(=O)c1c([C@@H]2C[C@H]3CC[C@@H](C2)N3C(=O)CO)nc2c(-c3ccc(-c4ccncc4)nc3)cnn2c1N [Compound 3.65, 1-((1R,3s,5S)-3-(3-(2,4′-bipyridin-5-yl)-7-amino-6-(methylsulfonyl)pyrazolo[1,5-a]pyrimidin-5-yl)-8-azabicyclo[3.2.1]octan-8-yl)-2-hydroxyethanone]
IC50 ([1]; Homo sapiens, PC-3, Table 3-1): 1000 to 10000 nM | IC50 ([2]; Homo sapiens, PC-3, Table 3-1): 1000 to 10000 nM

Cc1ccc(-c2cnn3c(N)c(S(C)(=O)=O)c([C@@H]4C[C@H]5CC[C@@H](C4)N5C(=O)c4nnc[nH]4)nc23)cn1 [Compound 3.68, ((1R,3s,5S)-3-(7-amino-3-(6-methylpyridin-3-yl)-6-(methylsulfonyl)pyrazolo[1,5-a]pyrimidin-5-yl)-8-azabicyclo[3.2.1]octan-8-yl)(4H-1,2,4-triazol-3-yl)methanone]
IC50 ([1]; Table 3-1): 100 to 1000 nM | IC50 ([2]; Table 3-1): 100 to 1000 nM

CS(=O)(=O)c1c([C@@H]2C[C@H]3CC[C@@H](C2)N3C(=O)c2nnc[nH]2)nc2c(-c3cccnc3)cnn2c1N [Compound 3.69, ((1R,3s,5S)-3-(7-amino-6-(methylsulfonyl)-3-(pyridin-3-yl)pyrazolo[1,5-a]pyrimidin-5-yl)-8-azabicyclo[3.2.1]octan-8-yl)(4H-1,2,4-triazol-3-yl)methanone]
IC50 ([1]; Table 3-1): 100 to 1000 nM | IC50 ([2]; Table 3-1): 100 to 1000 nM

COCCOCC(=O)N1[C@@H]2CC[C@H]1C[C@H](c1nc3c(-c4ccc(-c5ccccc5)nc4)cnn3c(N)c1S(C)(=O)=O)C2 [Compound 3.72, 1-((1R,3s,5S)-3-(7-amino-6-(methylsulfonyl)-3-(6-phenylpyridin-3-yl)pyrazolo[1,5-a]pyrimidin-5-yl)-8-azabicyclo[3.2.1]octan-8-yl)-2-(2-methoxyethoxy)ethanone]
IC50 ([1]; Homo sapiens, PC-3, Table 3-1): 1000 to 10000 nM | IC50 ([2]; Homo sapiens, PC-3, Table 3-1): 1000 to 10000 nM

CS(=O)(=O)c1c([C@@H]2C[C@H]3CC[C@@H](C2)N3C(=O)c2cc(C(F)(F)F)n[nH]2)nc2c(-c3ccc(-c4ccccc4)nc3)cnn2c1N [Compound 3.73, ((1R,3s,5S)-3-(7-amino-6-(methylsulfonyl)-3-(6-phenylpyridin-3-yl)pyrazolo[1,5-a]pyrimidin-5-yl)-8-azabicyclo[3.2.1]octan-8-yl)(3-(trifluoromethyl)-1H-pyrazol-5-yl)methanone]
IC50 ([1]; Homo sapiens, PC-3, Table 3-1): 1000 to 10000 nM | IC50 ([2]; Homo sapiens, PC-3, Table 3-1): > 10000 nM

CS(=O)(=O)c1c([C@@H]2C[C@H]3CC[C@@H](C2)N3C(=O)c2ccn[nH]2)nc2c(-c3ccc(-c4ccccc4)nc3)cnn2c1N [Compound 3.74, ((1R,3s,5S)-3-(7-amino-6-(methylsulfonyl)-3-(6-phenylpyridin-3-yl)pyrazolo[1,5-a]pyrimidin-5-yl)-8-azabicyclo[3.2.1]octan-8-yl)(1H-pyrazol-5-yl)methanone]
IC50 ([1]; Homo sapiens, PC-3, Table 3-1): 1 to 100 nM | IC50 ([2]; Homo sapiens, PC-3, Table 3-1): 1 to 100 nM

CS(=O)(=O)c1c([C@@H]2C[C@H]3CC[C@@H](C2)N3C(=O)c2cc(N)n[nH]2)nc2c(-c3ccc(-c4ccccc4)nc3)cnn2c1N [Compound 3.75, (3-amino-1H-pyrazol-5-yl)((1R,3s,5S)-3-(7-amino-6-(methylsulfonyl)-3-(6-phenylpyridin-3-yl)pyrazolo[1,5-a]pyrimidin-5-yl)-8-azabicyclo[3.2.1]octan-8-yl)methanone]
IC50 ([1]; Homo sapiens, PC-3, Table 3-1): 1 to 100 nM | IC50 ([2]; Homo sapiens, PC-3, Table 3-1): 1 to 100 nM

CS(=O)(=O)c1c([C@@H]2C[C@H]3CC[C@@H](C2)N3C(=O)c2cc3cnccc3[nH]2)nc2c(-c3ccc(-c4ccccc4)nc3)cnn2c1N [Compound 3.76, ((1R,3s,5S)-3-(7-amino-6-(methylsulfonyl)-3-(6-phenylpyridin-3-yl)pyrazolo[1,5-a]pyrimidin-5-yl)-8-azabicyclo[3.2.1]octan-8-yl)(1H-pyrrolo[3,2-c]pyridin-2-yl)methanone]
IC50 ([1]; Homo sapiens, PC-3, Table 3-1): 1 to 100 nM | IC50 ([2]; Homo sapiens, PC-3, Table 3-1): 1 to 100 nM

CS(=O)(=O)c1c([C@@H]2C[C@H]3CC[C@@H](C2)N3C(=O)c2cc3cccnc3[nH]2)nc2c(-c3ccc(-c4ccccc4)nc3)cnn2c1N [Compound 3.77, ((1R,3s,5S)-3-(7-amino-6-(methylsulfonyl)-3-(6-phenylpyridin-3-yl)pyrazolo[1,5-a]pyrimidin-5-yl)-8-azabicyclo[3.2.1]octan-8-yl)(1H-pyrrolo[2,3-b]pyridin-2-yl)methanone]
IC50 ([1]; Homo sapiens, PC-3, Table 3-1): 1000 to 10000 nM | IC50 ([2]; Homo sapiens, PC-3, Table 3-1): > 10000 nM

CS(=O)(=O)c1c([C@@H]2C[C@H]3CC[C@@H](C2)N3C(=O)c2ncc[nH]2)nc2c(-c3ccc(-c4ccccc4)nc3)cnn2c1N [Compound 3.78, ((1R,3s,5S)-3-(7-amino-6-(methylsulfonyl)-3-(6-phenylpyridin-3-yl)pyrazolo[1,5-a]pyrimidin-5-yl)-8-azabicyclo[3.2.1]octan-8-yl)(1H-imidazol-2-yl)methanone]
IC50 ([1]; Homo sapiens, PC-3, Table 3-1): 100 to 1000 nM | IC50 ([2]; Homo sapiens, PC-3, Table 3-1): 100 to 1000 nM
